{
  "source": "patent US6355799B1",
  "about": "“Substituted benzene compounds, process for their preparation, and herbicidal and defoliant compositions containing them” (ISK Americas Incorporated, priority 1997, dated 2002)",
  "format_in_all_cases": "in vivo",
  "key": {"[1]": {"tested_on": "barnyardgrass (Echinochloa crus-galli, ECHCG)", "test": "Pre-emerge test, greenhouse herbicide activity screening", "conditions": "rating scale 0-100, 14 days after application", "procedure,_shortened": "(§1)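 Compounds in acetone were track-sprayed at 187 l/ha, 15–1000 g ai/ha, onto sandy loam pots. Pre-emerge seeds were sown one day before spraying, with surface watering afterwards. Post-emerge plants were at the 2–3 leaf stage and sprayed with 0.25% v/v non-ionic surfactant. Injury was rated 0–100 at 14 days.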"}, "[2]": {"tested_on": "common ragweed (Ambrosia artemisizfolia L., AMBEL)", "test": "Pre-emerge test, greenhouse herbicide activity screening", "conditions": "rating scale 0-100, 14 days after application", "procedure,_shortened": "as §1"}, "[3]": {"tested_on": "velvetleaf (Abutilon theophrasti, ABUTH)", "test": "Pre-emerge test, greenhouse herbicide activity screening", "conditions": "rating scale 0-100, 14 days after application", "procedure,_shortened": "as §1"}, "[4]": {"tested_on": "johnsongrass (Sorghum halepense, SORHA)", "test": "Pre-emerge test, greenhouse herbicide activity screening", "conditions": "rating scale 0-100, 14 days after application", "procedure,_shortened": "as §1"}, "[5]": {"tested_on": "large crabgrass (Digitaria sanguinalis, DIGSA)", "test": "Pre-emerge test, greenhouse herbicide activity screening", "conditions": "rating scale 0-100, 14 days after application", "procedure,_shortened": "as §1"}, "[6]": {"tested_on": "ivyleaf morningglory (Ipomoea hederacea, IPOHE)", "test": "Pre-emerge test, greenhouse herbicide activity screening", "conditions": "rating scale 0-100, 14 days after application", "procedure,_shortened": "as §1"}, "[7]": {"tested_on": "lambsquarters (Chenopodium album, CHEAL)", "test": "Pre-emerge test, greenhouse herbicide activity screening", "conditions": "rating scale 0-100, 14 days after application", "procedure,_shortened": "as §1"}, "[8]": {"tested_on": "green foxtail (Setaria viridis, SETVI)", "test": "Pre-emerge test, greenhouse herbicide activity screening", "conditions": "rating scale 0-100, 14 days after application", "procedure,_shortened": "as §1"}, "[9]": {"tested_on": "sicklepod (Cassia obtusifolia, CASOB)", "test": "Pre-emerge test, greenhouse herbicide activity screening", "conditions": "rating scale 0-100, 14 days after application", "procedure,_shortened": "as §1"}, "[10]": {"tested_on": "barnyardgrass (Echinochloa crus-galli, ECHCG)", "test": "Post-emerge test, greenhouse herbicide activity screening", "procedure,_shortened": "(§2)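 Visual ratings on a 0-100 scale (0 no damage, 100 all plants dead) were taken at 14 days after treatment. Rates of 15-1000 g ai/ha in acetone, 187 l/ha, were sprayed onto soil one day after planting (pre-emerge) or onto 2-3 leaf plants with 0.25% v/v surfactant (post-emerge).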"}, "[11]": {"tested_on": "velvetleaf (Abutilon theophrasti, ABUTH)", "test": "Post-emerge test, greenhouse herbicide activity screening", "procedure,_shortened": "as §2"}, "[12]": {"tested_on": "johnsongrass (Sorghum halepense, SORHA)", "test": "Post-emerge test, greenhouse herbicide activity screening", "procedure,_shortened": "as §2"}, "[13]": {"tested_on": "large crabgrass (Digitaria sanguinalis, DIGSA)", "test": "Post-emerge test, greenhouse herbicide activity screening", "procedure,_shortened": "as §2"}, "[14]": {"tested_on": "redroot pigweed (Amaranthus retroflexus, AMARE)", "test": "Post-emerge test, greenhouse herbicide activity screening", "procedure,_shortened": "as §2"}, "[15]": {"tested_on": "ivyleaf morningglory (Ipomoea hederacea, IPOHE)", "test": "Post-emerge test, greenhouse herbicide activity screening", "procedure,_shortened": "as §2"}, "[16]": {"tested_on": "lambsquarters (Chenopodium album, CHEAL)", "test": "Post-emerge test, greenhouse herbicide activity screening", "procedure,_shortened": "as §2"}, "[17]": {"tested_on": "green foxtail (Setaria viridis, SETVI)", "test": "Post-emerge test, greenhouse herbicide activity screening", "procedure,_shortened": "as §2"}, "[18]": {"tested_on": "sicklepod (Cassia obtusifolia, CASOB)", "test": "Post-emerge test, greenhouse herbicide activity screening", "procedure,_shortened": "as §2"}, "[19]": {"tested_on": "redroot pigweed (Amaranthus retroflexus, AMARE)", "test": "Pre-emerge test, greenhouse herbicide activity screening", "conditions": "rating scale 0-100, 14 days after application", "procedure,_shortened": "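Rating: 0–100 visual injury, 14 DAA. Application: acetone, 187 l/ha, 15–1000 g ai/ha, flat-fan track sprayer with nozzle 40–45 cm above soil or canopy. Post-emerge runs used 0.25% v/v surfactant on 2–3 leaf plants.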"}, "[20]": {"conditions": "Rate 250 g ai/ha, rating scale 0-100 (0 no damage, 100 complete death), 14 days after application"}},
  "data": [
    {"smiles": "O=C(Nc1cc(Cl)ccc1N1C(=O)c2ccccc2C1=O)c1ccc2ccccc2c1", "note": "[Compound 13-5, N-[4-chloro-2-(2-naphthoylamino)phenyl]phthalimide]", "values": [
      {"measurement": "Pre-emerge herbicidal activity, phytotoxicity rating ECHCG", "setting": "[1]; 63 g ai/ha", "value": 0},
      {"measurement": "Pre-emerge herbicidal activity, phytotoxicity rating ECHCG", "setting": "[1]; 250 g ai/ha", "value": 0},
      {"measurement": "Pre-emerge herbicidal activity, phytotoxicity rating AMBEL", "setting": "[2]; 63 g ai/ha", "value": 0},
      {"measurement": "Pre-emerge herbicidal activity, phytotoxicity rating AMBEL", "setting": "[2]; 250 g ai/ha", "value": 0},
      {"measurement": "Pre-emerge herbicidal activity, phytotoxicity rating ABUTH", "setting": "[3]; 63 g ai/ha", "value": 0},
      {"measurement": "Pre-emerge herbicidal activity, phytotoxicity rating ABUTH", "setting": "[3]; 250 g ai/ha", "value": 0},
      {"measurement": "Pre-emerge herbicidal activity, phytotoxicity rating SORHA", "setting": "[4]; 63 g ai/ha", "value": 0},
      {"measurement": "Pre-emerge herbicidal activity, phytotoxicity rating SORHA", "setting": "[4]; 250 g ai/ha", "value": 30},
      {"measurement": "Pre-emerge herbicidal activity, phytotoxicity rating DIGSA", "setting": "[5]; 63 g ai/ha", "value": 0},
      {"measurement": "Pre-emerge herbicidal activity, phytotoxicity rating DIGSA", "setting": "[5]; 250 g ai/ha", "value": 10},
      {"measurement": "Pre-emerge herbicidal activity, phytotoxicity rating IPOHE", "setting": "[6]; 63 g ai/ha", "value": 0},
      {"measurement": "Pre-emerge herbicidal activity, phytotoxicity rating IPOHE", "setting": "[6]; 250 g ai/ha", "value": 0},
      {"measurement": "Pre-emerge herbicidal activity, phytotoxicity rating CHEAL", "setting": "[7]; 63 g ai/ha", "value": 20},
      {"measurement": "Pre-emerge herbicidal activity, phytotoxicity rating CHEAL", "setting": "[7]; 250 g ai/ha", "value": 50},
      {"measurement": "Pre-emerge herbicidal activity, phytotoxicity rating SETVI", "setting": "[8]; 63 g ai/ha", "value": 30},
      {"measurement": "Pre-emerge herbicidal activity, phytotoxicity rating SETVI", "setting": "[8]; 250 g ai/ha", "value": 50},
      {"measurement": "Pre-emerge herbicidal activity, phytotoxicity rating CASOB", "setting": "[9]; 63 g ai/ha", "value": 0},
      {"measurement": "Pre-emerge herbicidal activity, phytotoxicity rating CASOB", "setting": "[9]; 250 g ai/ha", "value": 0},
      {"measurement": "pest or weed control at 63 g/ha", "setting": "[10]; Echinochloa crus-galli, post-emergence, 336 h, post-emerge, 63 g ai/ha, phytotoxicity rating 0-100 at 14 days after application, read-out: Post-emerge Herbicidal Activity ECHCG", "value": 0, "unit": "%"},
      {"measurement": "Post-emerge Herbicidal Activity, phytotoxicity rating ECHCG", "setting": "[10]; [20]", "value": 0},
      {"measurement": "pest or weed control at 63 g/ha", "setting": "[11]; Abutilon theophrasti, post-emergence, 336 h, post-emerge, 63 g ai/ha, phytotoxicity rating 0-100 at 14 days after application, read-out: Post-emerge Herbicidal Activity ABUTH", "value": 70, "unit": "%"},
      {"measurement": "Post-emerge Herbicidal Activity, phytotoxicity rating ABUTH", "setting": "[11]; [20]", "value": 70},
      {"measurement": "Post-emerge Herbicidal Activity, phytotoxicity rating SORHA", "setting": "[12]; [20]", "value": 0},
      {"measurement": "pest or weed control at 63 g/ha", "setting": "[12]; Sorghum halepense, post-emergence, 336 h, post-emerge, 63 g ai/ha, phytotoxicity rating 0-100 at 14 days after application, read-out: Post-emerge Herbicidal Activity SORHA", "value": 0, "unit": "%"},
      {"measurement": "pest or weed control at 63 g/ha", "setting": "[13]; Digitaria sanguinalis, post-emergence, 336 h, post-emerge, 63 g ai/ha, phytotoxicity rating 0-100 at 14 days after application, read-out: Post-emerge Herbicidal Activity DIGSA", "value": 0, "unit": "%"},
      {"measurement": "Post-emerge Herbicidal Activity, phytotoxicity rating DIGSA", "setting": "[13]; [20]", "value": 20},
      {"measurement": "pest or weed control at 63 g/ha", "setting": "[14]; Amaranthus retroflexus, post-emergence, 336 h, post-emerge, 63 g ai/ha, phytotoxicity rating 0-100 at 14 days after application, read-out: Post-emerge Herbicidal Activity AMARE", "value": 70, "unit": "%"},
      {"measurement": "Post-emerge Herbicidal Activity, phytotoxicity rating AMARE", "setting": "[14]; [20]", "value": 75},
      {"measurement": "pest or weed control at 63 g/ha", "setting": "[15]; Ipomoea, post-emergence, 336 h, post-emerge, 63 g ai/ha, phytotoxicity rating 0-100 at 14 days after application, read-out: Post-emerge Herbicidal Activity IPOHE", "value": 50, "unit": "%"},
      {"measurement": "Post-emerge Herbicidal Activity, phytotoxicity rating IPOHE", "setting": "[15]; [20]", "value": 60},
      {"measurement": "pest or weed control at 63 g/ha", "setting": "[16]; Chenopodium album, post-emergence, 336 h, post-emerge, 63 g ai/ha, phytotoxicity rating 0-100 at 14 days after application, read-out: Post-emerge Herbicidal Activity CHEAL", "value": 95, "unit": "%"},
      {"measurement": "Post-emerge Herbicidal Activity, phytotoxicity rating CHEAL", "setting": "[16]; [20]", "value": 90},
      {"measurement": "Post-emerge Herbicidal Activity, phytotoxicity rating SETVI", "setting": "[17]; [20]", "value": 10},
      {"measurement": "pest or weed control at 63 g/ha", "setting": "[17]; Setaria viridis, post-emergence, 336 h, post-emerge, 63 g ai/ha, phytotoxicity rating 0-100 at 14 days after application, read-out: Post-emerge Herbicidal Activity SETVI", "value": 0, "unit": "%"},
      {"measurement": "Post-emerge Herbicidal Activity, phytotoxicity rating CASOB", "setting": "[18]; [20]", "value": 30},
      {"measurement": "pest or weed control at 63 g/ha", "setting": "[18]; Senna obtusifolia, post-emergence, 336 h, post-emerge, 63 g ai/ha, phytotoxicity rating 0-100 at 14 days after application, read-out: Post-emerge Herbicidal Activity CASOB", "value": 40, "unit": "%"},
      {"measurement": "Pre-emerge herbicidal activity, phytotoxicity rating AMARE", "setting": "[19]; 63 g ai/ha", "value": 30},
      {"measurement": "Pre-emerge herbicidal activity, phytotoxicity rating AMARE", "setting": "[19]; 250 g ai/ha", "value": 95}
    ]}
  ]
}
